In PMC7006816, “Human β-Defensin 2 Mediated Immune Modulation as Treatment for Experimental Colitis” (Frontiers in Immunology, 2020):
Where no end group is shown, it is not given here.

Experiments:
[1] = tested on: murine BM-DC's; experiment: Flow cytometry of BM-DCs (p-NF-κB, p-CREB, MHCII, CD86); format: cell-based, mouse; conditions: LPS + hBD2 100 μg/ml, flow cytometry, n = 6
Description: BM-DC's were generated using granulocyte-macrophage colony-stimulating factor (GM-CSF) and RPMI-1640 medium (Merck) supplemented with 10% fetal calf serum (FBS; Life Technologies), 2 mM glutamine (Thermo Fisher), 100 U/ml penicillin/streptomycin (Gibco), 50 μM 2-mercaptoethanol (Roth), 1 mM sodium pyruvate (Biochrome), and 1x non-essential amino acids (Biochrome) as previously described ([28]). Shortly, 2 × 10^6 bone marrow cells flushed from the tibias and femurs of C57BL/6 mice were seeded in dishes containing 200 U/ml GM-CSF. After 3 days extra medium containing GM-CSF was added to the cells and on day 6 half of the medium was replaced by fresh […] containing GM-CSF. After 7 or 8 days slightly attached cells were harvested. Female C57BL/6JolaHsd mice were purchased from Janvier (St. Berthevin Cedex, France). Animal experiments were performed in strict accordance with the German regulations of the Society for Laboratory Animal Science (GV-SOLAS) and the European Health Law of the Federation of Laboratory Animal Science Associations (FELASA). The protocol was approved by the Regierungspräsidium Tübingen (Anzeige 09.01.2014).
2 × 10^5 murine BM-DC's were seeded in 96-well round bottom plates and treated as described above. Cells were removed from the plate using Accutase (Sigma-Aldrich) and stained for 20 min at room temperature with Zombie Aqua (Biolegend) to exclude dead cells and extracellular antibodies against CD11c-APC (N418) (Miltenyi), MHCII-FITC (M5/114.15.2) (Miltenyi) and CD86-BV421 (GL-1) (Biolegend). For p-CREB staining cells were fixed and permeabilized with Foxp3 Staining Buffer Set (eBioscience) and stained with primary antibody phosphor-CREB mAb (Ser133; clone 87G3) (Cell Signaling) for 30 min in the dark at room temperature followed by secondary goat anti-rabbit IgG-DyLight™649 (Jackson ImmunoResearch) for 15 min at 4°C. To detect intracellular p-NF-κB BM-DCs were fixed with 2% paraformaldehyde (VWR) in PBS, permeabilized with 90% freezing methanol (Applichem) and stained with the primary antibodies to phosphor-NF-κB p65 (93H1) (Cell Signaling) for 60 min in the dark at room temperature followed by goat anti-rabbit IgG-PE-Cy7 (Santa Cruz Biotechnology) for 15 min at 4°C. PBS with 0,5% bovine serum albumin (Biomol) was used for all incubations and washing steps. At least 50,000 cells were acquired using a Canto-II flow cytometer (BD […]) with DIVA software (BD Biosciences) and were further analyzed using FlowJo 10.5 software (Tree Star).

[2] = tested on: human primary PBMC's; experiment: Stimulation of PBMCs of healthy volunteers with TLR ligands, cytokine release; format: cell-based; conditions: hBD2 100, 40, 10 or 1 μg/ml, 24 h, cytometric bead array
Description: Heparinized blood was diluted 1/1 v/v with RPMI (Gibco) and was subjected to Ficoll-Paque Plus (GE healthcare) density centrifugation within 2 h of drawing. Plasma was collected from the top from individual donors and was kept on ice until it was used at 2% in the culture medium (autologous culture medium). Isolated PBMC's were re-suspended in autologous culture medium and seeded in 96-well culture plates with 115.500 cells per well (Figure 1) or 200.000 cells per well (Figure 2) in a total of 200 μl. […] The supernatants were collected after incubation at 37°C for 24 h, and stored at −80°C until cytokine measurement.
The experiment in Figure 1 was performed with healthy volunteers, which were recruited under an approval from the Ethical Committee for Region Capital, Denmark. Interleukin 1β (IL-1β) and tumor necrosis factor alpha (TNF-α) (Figure 1) were quantified in supernatants by flow cytometry using a human inflammation cytometric bead array (CBA) according to manufacturer's instructions (BD) using a FACSarray flow cytometer. IL-1β, TNF- α, Interferon gamma (INF-y), Interleukin 12p70 (IL-12), and Interleukin 23 (IL-23) were analyzed using a human inflammation cytometric bead array (LegendPlex Biolegends) according to manufacturer's instructions.

[3] = tested on: C57BL/6 mice with DSS colitis; experiment: DSS colitis model; format: in vivo, mouse; conditions: 0.1 mg/kg s.c. once a day
Description: The DSS colitis study was performed by Farma-Cros Ibérica according to directive 86/609 EEC and approved by Novozymes science ethics committee. 7–8 weeks old male C57BL/6 mice were used (Charles River) and each group consisted of 10 animals. Animal allocation to all experimental groups was done in a randomized manner. Colitis was induced by supplementing the drinking water with 2% dextran sodium sulfate (DSS, 30–50 kDA, MP Biomedicals) for 7 days. On day 1 all mice were weighed and the drinking bottle was filled with the DSS solution, this solution was replaced on day 3 and 5. On day 8 the remaining solution was discarded and replaced with autoclaved water. Mice were divided into 3 groups. One group received PBS as sham treatment intravenously. One group received on day 1, 4, and 8, 300 μg/mouse of a mouse anti-TNF-α antibody (αTNF, Ramcon) intraperitoneally. The animals in the other group were dosed s.c. with 0.1 mg/kg hBD2 once a day, starting at day 1 until day 10. Animals were euthenized on day 10. Daily clinical assessment was carried out to calculate a validated clinical disease activity index (DAI) ranging from 0 to 4 according to the following parameters: body weight loss, presence or absence of rectal bleeding, stool consistency. One mouse in the DSS control group had to be euthanized before the end of the study.
Sections of the colon were taken from each animal and preserved in neutral buffered formaline for subsequent histological analysis. Sections were stained using haematoxylin and eosin for further scoring.

[4] = tested on: intestinal epithelial cells; conditions: cited from earlier work
Source text: (§1) Herein we report that hBD2 can be used as a systemically administered anti-inflammatory biological. hBD2 is well-tolerated, both in vitro, and in vivo. […] After su ...

[5] = tested on: human mesenchymal stem cells, osteoblasts, keratinocytes, and HeLa cells; conditions: cited from earlier work
Source text: as §1

human β-defensin 2 (GIGDPVTCLKSGAICHPVFCPRRYKQIGTCGLPGTKCCKKP; not fully specified; ends and bridges not checked) [hBD2, Recombinant human β-defensin 2 expressed in E. coli as his-tagged thioredoxin fusion, cleaved and purified, natural tertiary structure]
CREB phosphorylation ([1]; 60 min): increase in CREB phosphorylation | NF-κB phosphorylation ([1]; 60 min): reduced NF-κB phosphorylation | Maturation status (MHCII and CD86) [1]: reduced maturation status | Release of IL-1β ([2]; LPS 20 pg/ml, n = 150–194): consistently mitigated release of both cytokines | Release of TNF-α ([2]; LPS 20 pg/ml, n = 150–194): consistently mitigated release of both cytokines | Release of IL-1β ([2]; Pam3CSK4 0.3 μg/ml): significantly reduced | Release of TNF-α ([2]; Pam3CSK4 0.3 μg/ml): significantly reduced | Outcome of DSS colitis ([3]; day 1-10, 2% DSS 7 days, n = 10): significant improvement of colitis | Therapeutic effect compared with anti-TNF-α antibody (300 μg/mouse i.p. day 1, 4, 8) ([3]; 2% DSS): superior to anti-TNF-α treatment | Histology score of the colon (mucosal damage) ([3]; 2% DSS, end of experiment, n = 10): significantly reduced mucosal damage | DAI ([3]; 2% DSS, n = 10): improved the DAI | Weight change ([3]; 2% DSS, n = 10): prevented excessive weight loss | Tolerability [4]: well-tolerated by intestinal epithelial cells | Cytotoxic effects [5]: without observing cytotoxic effects
